≈ marks a conversion by molar mass, not a printed value.
Key:
MAP kinase p38 = MAP kinase p38 (Homo sapiens, UniProt O15264+Q15759+Q16539+P53778); assay: Inhibition of MAPK p38 (unknown origin)
[1] = biological target: T1, Tyrosine-protein kinase Mer (Homo sapiens, UniProt Q12866); assay: Inhibition of recombinant human GST-tagged MER cytoplasmic domain expressed in baculovirus expression system
T1 sequence (Q12866 whole entry): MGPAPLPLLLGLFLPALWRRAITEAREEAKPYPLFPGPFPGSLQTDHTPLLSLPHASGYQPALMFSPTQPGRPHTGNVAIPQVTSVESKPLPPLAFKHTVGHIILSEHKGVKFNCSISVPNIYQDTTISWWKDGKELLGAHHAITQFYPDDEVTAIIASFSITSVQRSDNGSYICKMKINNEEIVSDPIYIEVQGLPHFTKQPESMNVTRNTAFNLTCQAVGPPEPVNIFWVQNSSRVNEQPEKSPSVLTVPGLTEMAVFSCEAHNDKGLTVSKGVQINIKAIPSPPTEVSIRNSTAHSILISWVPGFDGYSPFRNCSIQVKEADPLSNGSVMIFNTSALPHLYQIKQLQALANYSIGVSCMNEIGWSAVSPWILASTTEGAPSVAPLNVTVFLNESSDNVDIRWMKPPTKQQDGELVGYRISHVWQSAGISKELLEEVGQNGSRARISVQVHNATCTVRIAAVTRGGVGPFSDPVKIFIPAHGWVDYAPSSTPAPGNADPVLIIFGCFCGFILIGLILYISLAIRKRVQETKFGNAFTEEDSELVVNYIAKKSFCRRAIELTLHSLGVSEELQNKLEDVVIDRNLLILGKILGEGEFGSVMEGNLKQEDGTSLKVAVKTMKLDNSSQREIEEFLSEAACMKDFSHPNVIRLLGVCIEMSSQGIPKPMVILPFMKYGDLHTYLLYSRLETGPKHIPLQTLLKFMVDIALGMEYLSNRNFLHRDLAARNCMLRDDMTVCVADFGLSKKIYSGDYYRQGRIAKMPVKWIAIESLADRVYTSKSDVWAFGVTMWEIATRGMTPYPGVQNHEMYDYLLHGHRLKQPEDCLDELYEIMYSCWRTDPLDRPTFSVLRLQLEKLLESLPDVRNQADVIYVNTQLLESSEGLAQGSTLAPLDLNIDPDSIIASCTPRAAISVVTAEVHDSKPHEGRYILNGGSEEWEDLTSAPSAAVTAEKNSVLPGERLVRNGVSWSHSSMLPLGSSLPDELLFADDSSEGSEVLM

[2] = biological target: Epidermal growth factor receptor (Homo sapiens, UniProt P00533); assay: Inhibition of recombinant human GST-tagged EGFR cytoplasmic domain (668 to 1210 residues) expressed in baculovirus expression system
Ephrin type-A receptor 3 = biological target: T2, Ephrin type-A receptor 3 (Homo sapiens, UniProt P29320); assay: Inhibition of recombinant human His-tagged EPHA3 cytoplasmic domain (569 to 976 residues) expressed in baculovirus expression system
T2 sequence (P29320 whole entry): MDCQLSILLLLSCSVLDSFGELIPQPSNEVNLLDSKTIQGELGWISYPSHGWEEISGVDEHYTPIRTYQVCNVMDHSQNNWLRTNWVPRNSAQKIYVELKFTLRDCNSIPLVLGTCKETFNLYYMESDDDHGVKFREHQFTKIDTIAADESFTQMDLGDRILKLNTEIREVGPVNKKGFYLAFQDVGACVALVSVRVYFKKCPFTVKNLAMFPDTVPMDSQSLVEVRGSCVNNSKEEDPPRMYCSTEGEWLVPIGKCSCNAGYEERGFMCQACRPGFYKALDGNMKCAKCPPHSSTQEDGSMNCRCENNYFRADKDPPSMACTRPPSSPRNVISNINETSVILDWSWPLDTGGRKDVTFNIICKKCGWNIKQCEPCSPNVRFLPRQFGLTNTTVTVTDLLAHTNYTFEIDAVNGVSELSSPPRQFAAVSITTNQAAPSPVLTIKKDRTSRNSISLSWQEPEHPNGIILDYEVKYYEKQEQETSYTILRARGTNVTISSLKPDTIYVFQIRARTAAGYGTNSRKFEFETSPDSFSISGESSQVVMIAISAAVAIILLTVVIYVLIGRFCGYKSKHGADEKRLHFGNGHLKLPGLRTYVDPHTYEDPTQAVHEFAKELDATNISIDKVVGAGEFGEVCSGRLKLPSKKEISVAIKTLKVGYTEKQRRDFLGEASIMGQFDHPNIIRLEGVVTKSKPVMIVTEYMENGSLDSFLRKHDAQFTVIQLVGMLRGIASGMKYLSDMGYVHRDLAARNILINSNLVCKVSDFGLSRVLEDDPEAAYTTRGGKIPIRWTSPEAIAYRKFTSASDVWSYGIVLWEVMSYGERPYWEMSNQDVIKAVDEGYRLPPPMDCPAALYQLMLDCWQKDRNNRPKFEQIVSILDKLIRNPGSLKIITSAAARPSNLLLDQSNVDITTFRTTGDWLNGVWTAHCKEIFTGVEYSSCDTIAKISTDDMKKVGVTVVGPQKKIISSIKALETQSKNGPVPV

[3] = biological target: 5'-AMP-activated protein kinase catalytic subunit alpha-1 (Homo sapiens, UniProt Q13131); assay: Inhibition of PRKAA1 (unknown origin)
[4] = Thermodynamic solubility of the compound in pH 6.8 solution; type: physicochemical; conditions: read-out: Therm_solubility
[5] = biological target: Receptor tyrosine-protein kinase erbB-4 (Homo sapiens, UniProt Q15303); assay: Inhibition of recombinant human N-terminal GST-tagged ERBB4 cytoplasmic domain (708 to 993 residues) expressed in baculovirus expression system
Chain of Receptor tyrosine-protein kinase erbB-4 (Q15303 whole entry, the tested form may be a part): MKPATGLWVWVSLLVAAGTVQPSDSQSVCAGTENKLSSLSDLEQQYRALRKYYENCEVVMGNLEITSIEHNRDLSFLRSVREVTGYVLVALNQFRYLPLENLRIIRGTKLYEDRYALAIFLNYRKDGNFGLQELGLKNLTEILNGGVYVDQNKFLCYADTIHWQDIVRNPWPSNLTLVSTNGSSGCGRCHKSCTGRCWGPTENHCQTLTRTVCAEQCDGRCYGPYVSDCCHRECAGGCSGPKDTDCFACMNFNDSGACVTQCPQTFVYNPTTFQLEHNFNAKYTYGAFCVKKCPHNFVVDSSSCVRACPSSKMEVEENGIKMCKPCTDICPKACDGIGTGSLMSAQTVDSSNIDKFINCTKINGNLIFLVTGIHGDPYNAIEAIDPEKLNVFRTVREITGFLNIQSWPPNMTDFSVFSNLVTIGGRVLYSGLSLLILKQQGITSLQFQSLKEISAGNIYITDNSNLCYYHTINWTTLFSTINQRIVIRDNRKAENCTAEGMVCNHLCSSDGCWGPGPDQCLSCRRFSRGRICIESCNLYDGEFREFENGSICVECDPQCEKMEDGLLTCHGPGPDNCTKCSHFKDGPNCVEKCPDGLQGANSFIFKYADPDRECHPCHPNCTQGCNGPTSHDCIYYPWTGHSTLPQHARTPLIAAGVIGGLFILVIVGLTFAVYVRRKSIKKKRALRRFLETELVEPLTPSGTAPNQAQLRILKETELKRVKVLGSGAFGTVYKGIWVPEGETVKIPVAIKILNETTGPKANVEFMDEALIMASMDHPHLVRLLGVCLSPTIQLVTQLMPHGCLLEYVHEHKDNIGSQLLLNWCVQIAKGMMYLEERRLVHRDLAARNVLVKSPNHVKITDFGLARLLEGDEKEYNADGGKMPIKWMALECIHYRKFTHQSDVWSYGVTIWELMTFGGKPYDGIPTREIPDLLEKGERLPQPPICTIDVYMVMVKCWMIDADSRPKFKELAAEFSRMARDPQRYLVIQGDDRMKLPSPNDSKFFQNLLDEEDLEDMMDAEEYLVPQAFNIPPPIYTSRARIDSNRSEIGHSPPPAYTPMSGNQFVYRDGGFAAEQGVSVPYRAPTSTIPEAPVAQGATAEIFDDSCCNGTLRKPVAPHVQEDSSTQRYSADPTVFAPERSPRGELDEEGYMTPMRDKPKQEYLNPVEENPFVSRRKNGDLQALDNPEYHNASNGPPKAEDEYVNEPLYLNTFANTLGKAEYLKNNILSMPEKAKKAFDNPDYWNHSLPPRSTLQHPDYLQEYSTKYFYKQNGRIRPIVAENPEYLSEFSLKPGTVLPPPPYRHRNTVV

Chain of Epidermal growth factor receptor (P00533 whole entry, the tested form may be a part): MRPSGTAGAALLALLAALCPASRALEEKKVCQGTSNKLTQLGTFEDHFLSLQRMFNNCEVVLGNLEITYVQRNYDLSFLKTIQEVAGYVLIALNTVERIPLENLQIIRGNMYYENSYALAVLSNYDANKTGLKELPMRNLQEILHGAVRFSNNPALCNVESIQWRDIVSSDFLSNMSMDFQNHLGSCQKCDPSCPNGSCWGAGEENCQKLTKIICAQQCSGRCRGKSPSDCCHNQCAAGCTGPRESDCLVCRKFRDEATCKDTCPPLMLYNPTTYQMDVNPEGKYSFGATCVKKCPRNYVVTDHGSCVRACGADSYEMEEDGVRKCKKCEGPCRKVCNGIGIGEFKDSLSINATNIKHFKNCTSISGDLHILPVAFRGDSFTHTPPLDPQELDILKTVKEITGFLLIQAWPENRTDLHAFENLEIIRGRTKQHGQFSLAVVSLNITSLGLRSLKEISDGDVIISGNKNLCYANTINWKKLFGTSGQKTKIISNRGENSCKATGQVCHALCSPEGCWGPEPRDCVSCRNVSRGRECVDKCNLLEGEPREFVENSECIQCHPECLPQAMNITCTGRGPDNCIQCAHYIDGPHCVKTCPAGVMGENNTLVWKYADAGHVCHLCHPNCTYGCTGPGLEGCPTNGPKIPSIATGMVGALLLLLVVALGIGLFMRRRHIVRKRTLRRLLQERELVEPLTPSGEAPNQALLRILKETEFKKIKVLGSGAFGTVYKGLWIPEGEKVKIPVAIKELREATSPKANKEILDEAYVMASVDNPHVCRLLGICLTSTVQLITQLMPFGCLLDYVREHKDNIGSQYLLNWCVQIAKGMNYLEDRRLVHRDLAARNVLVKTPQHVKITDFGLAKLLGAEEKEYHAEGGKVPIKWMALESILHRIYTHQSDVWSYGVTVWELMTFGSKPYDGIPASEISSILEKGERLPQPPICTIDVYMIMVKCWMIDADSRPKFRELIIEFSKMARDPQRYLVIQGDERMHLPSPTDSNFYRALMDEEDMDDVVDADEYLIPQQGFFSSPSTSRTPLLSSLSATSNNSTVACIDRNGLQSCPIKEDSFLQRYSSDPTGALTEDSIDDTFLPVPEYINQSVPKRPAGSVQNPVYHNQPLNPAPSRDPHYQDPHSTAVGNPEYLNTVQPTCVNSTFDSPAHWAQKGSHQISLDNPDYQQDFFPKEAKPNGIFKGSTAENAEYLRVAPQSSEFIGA
Chain of 5'-AMP-activated protein kinase catalytic subunit alpha-1 (Q13131 whole entry): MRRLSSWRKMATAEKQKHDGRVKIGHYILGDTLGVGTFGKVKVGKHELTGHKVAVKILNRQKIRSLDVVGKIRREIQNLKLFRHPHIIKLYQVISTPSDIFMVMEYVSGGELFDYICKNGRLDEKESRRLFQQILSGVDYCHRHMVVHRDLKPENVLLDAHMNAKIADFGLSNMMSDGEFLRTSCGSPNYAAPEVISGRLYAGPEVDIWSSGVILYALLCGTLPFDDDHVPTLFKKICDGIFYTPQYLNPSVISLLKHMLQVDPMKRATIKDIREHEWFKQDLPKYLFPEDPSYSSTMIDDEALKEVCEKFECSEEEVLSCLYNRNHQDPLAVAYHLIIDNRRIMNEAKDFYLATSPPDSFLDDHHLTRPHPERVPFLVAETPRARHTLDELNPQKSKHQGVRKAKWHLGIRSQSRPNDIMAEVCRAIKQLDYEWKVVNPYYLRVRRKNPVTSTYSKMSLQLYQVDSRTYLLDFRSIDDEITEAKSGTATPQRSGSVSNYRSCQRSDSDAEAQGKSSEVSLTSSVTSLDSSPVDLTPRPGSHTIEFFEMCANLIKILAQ

COCCn1cc(NC(=O)c2csc(-c3nncn3C(C)C)n2)cn1
pIC50 (MAP kinase p38): < 4.7 | IC50 [1]: 7.59 µM | IC50 [2]: > 20 µM | IC50 (Ephrin type-A receptor 3): > 20 µM | IC50 [3]: 0.794 µM | solubility thermodynamic [4]: 208 µM (≈ 75.2 µg/mL) | IC50 [5]: > 20 µM

Source: ChEMBL document CHEMBL4007491, “Structure-based drug design of novel ASK1 inhibitors using an integrated lead optimization strategy” (Bioorg Med Chem Lett, 2017)
